Assay results: the supplement of paper PMC10307832

Key:
Test in all cases: relative viability (nuclei count vs DMSO), 5 days (fraction); higher = more cells survive
Linsitinib + Foretinib = compound: C[C@]1(O)C[C@@H](c2nc(-c3ccc4ccc(-c5ccccc5)nc4c3)c3c(N)nccn32)C1 [Linsitinib] + COc1cc2c(Oc3ccc(NC(=O)C4(C(=O)Nc5ccc(F)cc5)CC4)cc3F)ccnc2cc1OCCCN1CCOCC1 [Foretinib] (partner 0.25 µM)
Method in brief: (§1)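 After 5 days of treatment, lung cancer cells in 1536-well plates were fixed and stained in a single step (final 0.05% Triton X-100, 1% formaldehyde, 1 ug/ml Hoechst) and their nuclei counted on 4× images. Treatment had been applied by pin tool the day after seeding as one drug alone or as a fixed anchor-drug dose with five library-drug doses (not always all listed) in √10 steps. Relative viability is the nuclei count of treated wells divided by that of vehicle wells, and values are medians of duplicate plates.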

Ispinesib + Dasatinib = compound: Cc1ccc(C(=O)N(CCCN)[C@@H](c2nc3cc(Cl)ccc3c(=O)n2Cc2ccccc2)C(C)C)cc1 [Ispinesib] + Cc1nc(Nc2ncc(C(=O)Nc3c(C)cccc3Cl)s2)cc(N2CCN(CCO)CC2)n1 [Dasatinib] (partner 0.075 µM)
Method in brief: as §1

Ispinesib + Phenformin = compound: Cc1ccc(C(=O)N(CCCN)[C@@H](c2nc3cc(Cl)ccc3c(=O)n2Cc2ccccc2)C(C)C)cc1 [Ispinesib] + N=C(N)NC(=N)NCCc1ccccc1 [Phenformin] (partner 250 µM)
Method in brief: as §1

Linsitinib + Pictilisib = compound: C[C@]1(O)C[C@@H](c2nc(-c3ccc4ccc(-c5ccccc5)nc4c3)c3c(N)nccn32)C1 [Linsitinib] + CS(=O)(=O)N1CCN(Cc2cc3nc(-c4cccc5[nH]ncc45)nc(N4CCOCC4)c3s2)CC1 [Pictilisib] (partner 1 µM)
Method in brief: as §1

Cell Line	relative viability (Linsitinib + Foretinib; first compound 0.01 µM)	relative viability (Linsitinib + Foretinib; first compound 0.03162 µM)	relative viability (Linsitinib + Foretinib; first compound 0.1 µM)	relative viability (Linsitinib + Foretinib; first compound 0.3162 µM)	relative viability (Linsitinib + Foretinib; first compound 1 µM)	relative viability (Ispinesib + Dasatinib; first compound 0.001 µM)	relative viability (Ispinesib + Dasatinib; first compound 0.003162 µM)	relative viability (Ispinesib + Dasatinib; first compound 0.01 µM)	relative viability (Ispinesib + Dasatinib; first compound 0.03162 µM)	relative viability (Ispinesib + Dasatinib; first compound 0.1 µM)	relative viability (Ispinesib + Phenformin; first compound 0.001 µM)	relative viability (Ispinesib + Phenformin; first compound 0.003162 µM)	relative viability (Ispinesib + Phenformin; first compound 0.01 µM)	relative viability (Ispinesib + Phenformin; first compound 0.03162 µM)	relative viability (Ispinesib + Phenformin; first compound 0.1 µM)	relative viability (Linsitinib + Pictilisib; first compound 0.01 µM)	relative viability (Linsitinib + Pictilisib; first compound 0.03162 µM)	relative viability (Linsitinib + Pictilisib; first compound 0.1 µM)	relative viability (Linsitinib + Pictilisib; first compound 1 µM)	relative viability (Linsitinib + Pictilisib; first compound 0.3162 µM)
NCI-H650	1.04	1.08	0.969	0.782	0.966	0.491	0.473	0.448	0.349	0.172	0.451	0.445	0.476	0.312	0.18	0.875	0.876	0.953	0.814	
IA-LM	1.12	1.06	0.867	0.783	1.07											0.329	0.409	0.334	0.156	0.349
A-427	1.12	1.15	1.19		1.11	0.668	0.793	0.817	0.396	0.161	0.377	0.415	0.333	0.168	0.158	0.53	0.594	0.719	0.688	
NCI-H2347	0.838	0.874	0.741	0.892	0.967	0.285	0.209	0.289	0.284	0.282	0.404	0.547	0.414	0.553	0.386	0.802	0.609	0.597	0.717	0.695
NCI-H1793	0.629	0.765	0.643	0.602	0.681	0.361	0.412	0.451	0.334	0.141	0.375	0.357	0.448	0.278	0.133	0.309	0.311	0.238	0.29	0.235
